# Experimental data reported in paper PMC10630452, “The tumor-enriched small molecule gambogic amide suppresses glioma by targeting WDR1-dependent cytoskeleton remodeling” (Signal Transduction and Targeted Therapy, 2023).
# Legend:
# WDR1 [1] = biological target: T1, WDR1 (Homo sapiens, UniProt O75083); assay: Cellular thermal shift assay (CETSA) in T2-4 cells; format: cell-based; details: 3 µM, 1 h, 67°C–70°C
# T1 construct: GA-amide protected WDR1 at different temperature gradients in the CETSA in T2-4 cells; endogenous in cells; host or cells: T2-4 patient-derived glioma cells
# Method: The cellular thermal shift assay (CETSA) has been described previously. Briefly, cells were incubated with DMSO or 3 µM GA-amide for 1 h and washed with PBS three times. Then, the cells were suspended in 1 mL of PBS and divided into equal volumes, followed by heating for 3 min at the indicated temperatures. After heating, three snap freeze–thaw cycles were applied to lyse the cells, and western blotting was performed as previously described.
# [2] = system: WDR1 knockout T2-4 and T12-1 cells; assay: Cell viability of WDR1 knockout PDCs; format: cell-based, human; details: WDR1 knockout T2-4 and T12-1 versus sg-NC
# Method: The data are representative of 3 wells, scale bar: 500 μm. j Statistical results of the recovery of invasion.
# For cell transfection, we first inserted the full-length cDNA encoding WDR1 and the WDR1 sequence with mutation of the four interaction sites into pcDNA3.1. Then, 293T cells were transiently transfected with these plasmids using Lipofectamine 3000 (Invitrogen). For cell transduction, WDR1 knockout and WDR1-overexpressing PDCs were generated by lentiviral transduction and selected by 1 µg/mL puromycin. All sg-WDR1 sequences are listed as follows: sg-WDR1 #2: 5′-[…]-3′, sg-WDR1 #3: 5′-[…]-3′, sg-WDR1 #4: 5′-[…]-3′, sg-WDR1 #5: 5′-[…]-3′. For cell transduction, CFL1 or MYH9 knockdown PDCs were generated by lentiviral transduction and selected by 1 µg/mL puromycin. All shRNA sequences are listed as follows: shCFL1-1: […], shCFL1-2: […], shMYH9-1: GCAAACCTCGAGAAGGCAA, shMYH9-2: GAAGTCAGCTCCCTAAAGA.
# hippocampal neurons = details: cited from earlier work
# F-actin = F-actin staining and G-actin/F-actin assay in T2-4 cells; format: cell-based; details: 0.3 μM, 4 h, 8 h and 12 h
# Method: F-actin isolation was performed according to the instructions of the G-actin/F-actin assay (Cytoskeleton, Inc.). Briefly, cells were lysed in LAS2 buffer (Cytoskeleton, Inc.). The lysates were centrifuged (5 min at 1000 rpm) to pellet undisrupted cells, and then 100 µl of the supernatant was ultracentrifuged at 37 °C (100,000 × g) for 1 h to separate F-actin from soluble G-actin. The F-actin pellet was solubilized by incubation in 100 μL of F-actin depolymerization buffer for 1 h. The soluble F-actin and G-actin fractions were subsequently analyzed by immunoblotting with a mouse monoclonal anti-actin antibody (Cytoskeleton, Inc.).
# Representative images of three wells are shown, and the scale bar represents 500 μm. h The apoptosis assay was conducted on T2-4 cells treated with DMSO, GA-amide (0.3 μM), jas (50 nM), and jas (50 nM jas was pretreated for 12 hours) in combination with GA-amide (0.3 μM) for 4 hours. The data were presented as the mean ± SEM (n = 3) and analyzed using one-way ANOVA analysis. Statistical significance is denoted as *P <0.05, **P <0.01, and ***P <0.001.
# [3] = BBB permeability assay in U87MG-SLC intracranial xenograft mice; format: in vivo, mouse; details: nude, mouse, in vivo, iv, 10 mg/kg
# Method: Fig. 2 The BBB permeability and tumor suppressor ability of GA-amide compared with TMZ. GA-amide (a) or TMZ (b) concentration in the tumor area and normal brain tissue following a single injection of GA-amide (10 mg/kg, i.v.) or TMZ (10 mg/kg, i.v.). The data are presented as the means ± SEMs (n = 3). c Western blot analysis of the expression of TrkA in mouse tumor tissues (T) and normal brain tissues (N), n = 4. d Western blot analysis of glycosylated TrkA expression in human normal brain tissues (N) and glioma tissues of different grades. e Time curve of GA-amide and TMZ treatment in a cell viability assay (MTS) in T2-4, GSC2 and T12-1 cells. f–h A PDX mouse model was established, and the mice were treated with vehicle (control, n = 9), 2 mg/kg GA-amide (n = 9), 2 mg/kg GAC (n = 9) or […] TMZ (n = 8) by i.p. injection daily for 10 days. A summary photograph is presented in (f), statistical results in (g) and the body weights of mice in (h); the mean ± SEMs are shown. n.s: P ≥ 0.05, *P < 0.05, **P < 0.01 and ***P < 0.001 compared with the control group by one-way ANOVA at each time point
# Mice bearing U87MG-SLC cell intracranial xenografts were injected with GA-amide (i.v.), and tissues from the brain tumor area and normal brain tissues were collected at different times after injection. […] The diagnostic product ions for GA-amide were detected at m/z 628.3/572.2.
# WDR1 [4] = biological target: T1, WDR1; assay: Drug affinity responsive target stability (DARTS) in T2-4 cells; format: binding; details: T2-4 lysate, 1 h incubation, pronase 30 min
# Method: The drug affinity responsive target stability (DARTS) method was performed following a previously described procedure.[32] In brief, cells were collected and lysed with M-PER lysis buffer (catalog 78501, Thermo Fisher Scientific) containing complete protease inhibitor (catalog 04693124001, Roche) and phosphatase inhibitors (catalog 04906845001, Roche). Then, the lysis buffer was supplemented with TNC buffer. The lysates were aliquoted into 1.5 mL tubes and incubated with DMSO or different concentrations of GA-amide for 1 h at room temperature. After incubation, the lysates were digested with 1 μg of pronase for every 300 μg of lysate for exactly 30 min. Then, protein loading buffer was added immediately, and the lysates were heated to stop proteolysis. Western blot analysis was performed for further analysis.
# T1 sequence (O75083 whole entry): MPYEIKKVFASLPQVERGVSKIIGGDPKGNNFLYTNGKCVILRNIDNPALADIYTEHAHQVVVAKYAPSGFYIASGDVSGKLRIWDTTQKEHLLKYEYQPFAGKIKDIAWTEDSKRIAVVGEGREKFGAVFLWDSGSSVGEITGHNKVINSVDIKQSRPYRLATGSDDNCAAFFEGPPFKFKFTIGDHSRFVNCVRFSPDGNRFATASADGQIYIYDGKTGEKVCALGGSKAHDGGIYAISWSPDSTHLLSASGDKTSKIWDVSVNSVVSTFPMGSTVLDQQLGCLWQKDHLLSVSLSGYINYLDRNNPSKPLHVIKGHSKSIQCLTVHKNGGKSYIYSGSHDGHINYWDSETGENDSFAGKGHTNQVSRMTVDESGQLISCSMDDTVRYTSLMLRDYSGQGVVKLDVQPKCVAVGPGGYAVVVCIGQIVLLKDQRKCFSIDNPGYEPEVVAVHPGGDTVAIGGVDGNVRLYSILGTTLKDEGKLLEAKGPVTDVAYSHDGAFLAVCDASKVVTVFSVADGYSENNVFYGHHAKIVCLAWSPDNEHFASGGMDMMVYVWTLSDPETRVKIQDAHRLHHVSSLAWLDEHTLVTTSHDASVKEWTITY
smiles,measurement,setting,value
"CC(C)=CCC[C@]1(C)C=Cc2c(O)c3c(c(CC=C(C)C)c2O1)O[C@]12C(=C[C@@H]4CC1C(C)(C)O[C@@]2(C/C=C(/C)C(N)=O)C4=O)C3=O [GA-amide, gambogic amide]",WDR1 thermal stabilization (western blot band),WDR1 [1],the band persisted in the cells treated with GA-amide
same,suppression of cell proliferation in WDR1 knockout cells,[2],decreased suppressive effects of GA-amide on cell proliferation
same,toxicity in vitro,hippocampal neurons; 0.5 μM,did not display any toxicity in vitro
same,concentrations with protective effect on hippocampal neurons against glutamate-triggered apoptosis,hippocampal neurons; also induced neurite outgrowth in PC12 cells,10 to 50 nM
same,F-actin content,F-actin,decreased content of F-actin at the cell edge
same,Tmax,[3],2 min
same,WDR1 stabilization against pronase digestion,WDR1 [4],significantly promoted WDR1 stabilization during pronase-induced degradation
